≈ marks a conversion by molar mass, not a printed value. Where a name gives a salt, the structure may show the parent alone.
Tests used:
Type in all cases: cell-based
[1] = system: Streptococcus faecalis ATCC 29212; assay: Antibacterial activity, agar dilution MIC, Streptococcus faecalis ATCC 29212; conditions: Enterococcus faecalis, ATCC29212, 18 hours at 35° C.
Method: (§1) The compounds of the invention are tested for their antibacterial activity. The test is carried out as follows:
(§2) The organisms used in the test comprise the following:
(§3) Staphylococcus aureus (penicillin-sensitive and resistant), Pseudomonas aeruginosa, Escherichia coli, […] pneumoniae, Bordetella bronchiseptica, Proteus vulgaris, P. mirabilis, Acinetobacter calcoaceticus.
(§4) Test organisms may be added or deleted in order to reflect current clinical patterns of antibiotic susceptibility or shifts in pathogenic potential.
(§5) Organisms are normally grown for 18 hours in Brain Heart Infusion at 35° C. Cultures are adjusted with saline to MacFarland No. 1.5 standard prior to use.
(§6) Stock concentrations (e.g. 2,5000 μg or units per ml) are prepared in a suitable vehicle. Two-fold dilutions are made. One ml quantities of each dilution are incorporated in 9 ml of the appropriate agar (e.g. Seed) in sterile Petri plates. The hardened surface is inoculated with test organisms by use of a Steers replicating device. The plates are incubated (e.g. 18 hours at 35° C.) and activity is determined.

[2] = system: Serratia marcescens ATCC 13880; assay: Antibacterial activity, agar dilution MIC, Serratia marcescens ATCC 13880; conditions: ATCC13880, 18 hours at 35° C.
Method: as §1, §2, §3, §4, §5, §6

[3] = system: Staphylococcus aureus ATCC 29213; assay: Antibacterial activity, agar dilution MIC, Staphylococcus aureus ATCC 29213; conditions: ATCC29213, 18 hours at 35° C.
Method: as §1, §2, §3, §4, §5, §6

[4] = system: Pseudomonas aeruginosa ATCC 27853; assay: Antibacterial activity, agar dilution MIC, Pseudomonas aeruginosa ATCC 27853; conditions: ATCC27853, 18 hours at 35° C.
Method: as §1, §2, §3, §4, §5, §6

[5] = system: Enterobacter cloacae ATCC 13047; assay: Antibacterial activity, agar dilution MIC, Enterobacter cloacae ATCC 13047; conditions: ATCC13047, 18 hours at 35° C.
Method: as §1, §2, §3, §4, §5, §6

[6] = system: Klebsiella pneunomiae KL-1; assay: Antibacterial activity, agar dilution MIC, Klebsiella pneunomiae KL-1; conditions: KL1, 18 hours at 35° C.
Method: as §1, §2, §3, §4, §5, §6

[7] = system: Escherichia coli ATCC 25922; assay: Antibacterial activity, agar dilution MIC, Escherichia coli ATCC 25922; conditions: ATCC25922, 18 hours at 35° C.
Method: as §1, §2, §3, §4, §5, §6

[8] = system: Proteus vulgaris A 84354 1; assay: Antibacterial activity, agar dilution MIC, Proteus vulgaris A 84354 1; conditions: A843541, 18 hours at 35° C.
Method: as §1, §2, §3, §4, §5, §6

| MIC [1] [µg/mL] | MIC [2] [µg/mL] | MIC [3] [µg/mL] | MIC [4] [µg/mL] | MIC [5] [µg/mL] | MIC [6] [µg/mL] | MIC [7] [µg/mL] | MIC [8] [µg/mL] | Compound |
| --- | --- | --- | --- | --- | --- | --- | --- | --- |
| > 256 | 32 (≈ 48.7 µM) | 128 (≈ 195 µM) | > 256 | > 256 | 2 (≈ 3.04 µM) | 8 (≈ 12.2 µM) | 2 (≈ 3.04 µM) | CO/N=C(\C(=O)N[C@@H]1C(=O)N2C(C(=O)OC(C)(C)C)=C(CSC3=NS(=O)(=O)c4cscc43)CS[C@H]12)c1csc(N)n1 [Example 1 B., (6R,7R)-7[[(2-Amino-4-thiazolyl)(methoxyimino)acetyl]amino]-8-oxo-3-[(thieno[3,4-d]isothiazol-3-ylthio)methyl]-5-thia-1-azabicyclo[4.2.0]oct-2-ene-2-carboxylic acid 1,1-dimethylethyl ester S^3,S^3-dioxide] |
| 256 | 2 | 32 | > 256 | 32 | < 1 | 2 | < 1 | CO/N=C(\C(=O)N[C@@H]1C(=O)N2C(C(=O)O)=C(CSC3=NS(=O)(=O)c4cscc43)CS[C@H]12)c1csc(N)n1 [Example 1 C., (6R,7R)-7-[[(2-Amino-4-thiazolyl)(methoxyimino)acetyl]amino]-8-oxo-3-[(thieno-[3,4-d]isothiazol-3-ylthio)methyl]-5-thia-1-azabicyclo[4.2.0]oct-2-ene-2-carboxylic acid S^3,S^3-dioxide, trifluoroacetate salt] |

— patent publication US4728734A, “C-3'thioiminosulfonyl cephalosporin analogs” (American Home Products Corporation, priority 1985, dated 1988)
